According to ChEMBL document CHEMBL1157312, “DNA methyl transferase inhibiting halogenated monoterpenes from the Madagascar red marine alga Portieria hornemannii” (J Nat Prod, 2006):

Target: DNA (cytosine-5)-methyltransferase 1 (Homo sapiens) (UniProt P26358)
Assay: Inhibition of DNMT1 assessed as drug level causing inhibition by SPA

Sequence of DNA (cytosine-5)-methyltransferase 1 (Homo sapiens) (P26358 whole entry): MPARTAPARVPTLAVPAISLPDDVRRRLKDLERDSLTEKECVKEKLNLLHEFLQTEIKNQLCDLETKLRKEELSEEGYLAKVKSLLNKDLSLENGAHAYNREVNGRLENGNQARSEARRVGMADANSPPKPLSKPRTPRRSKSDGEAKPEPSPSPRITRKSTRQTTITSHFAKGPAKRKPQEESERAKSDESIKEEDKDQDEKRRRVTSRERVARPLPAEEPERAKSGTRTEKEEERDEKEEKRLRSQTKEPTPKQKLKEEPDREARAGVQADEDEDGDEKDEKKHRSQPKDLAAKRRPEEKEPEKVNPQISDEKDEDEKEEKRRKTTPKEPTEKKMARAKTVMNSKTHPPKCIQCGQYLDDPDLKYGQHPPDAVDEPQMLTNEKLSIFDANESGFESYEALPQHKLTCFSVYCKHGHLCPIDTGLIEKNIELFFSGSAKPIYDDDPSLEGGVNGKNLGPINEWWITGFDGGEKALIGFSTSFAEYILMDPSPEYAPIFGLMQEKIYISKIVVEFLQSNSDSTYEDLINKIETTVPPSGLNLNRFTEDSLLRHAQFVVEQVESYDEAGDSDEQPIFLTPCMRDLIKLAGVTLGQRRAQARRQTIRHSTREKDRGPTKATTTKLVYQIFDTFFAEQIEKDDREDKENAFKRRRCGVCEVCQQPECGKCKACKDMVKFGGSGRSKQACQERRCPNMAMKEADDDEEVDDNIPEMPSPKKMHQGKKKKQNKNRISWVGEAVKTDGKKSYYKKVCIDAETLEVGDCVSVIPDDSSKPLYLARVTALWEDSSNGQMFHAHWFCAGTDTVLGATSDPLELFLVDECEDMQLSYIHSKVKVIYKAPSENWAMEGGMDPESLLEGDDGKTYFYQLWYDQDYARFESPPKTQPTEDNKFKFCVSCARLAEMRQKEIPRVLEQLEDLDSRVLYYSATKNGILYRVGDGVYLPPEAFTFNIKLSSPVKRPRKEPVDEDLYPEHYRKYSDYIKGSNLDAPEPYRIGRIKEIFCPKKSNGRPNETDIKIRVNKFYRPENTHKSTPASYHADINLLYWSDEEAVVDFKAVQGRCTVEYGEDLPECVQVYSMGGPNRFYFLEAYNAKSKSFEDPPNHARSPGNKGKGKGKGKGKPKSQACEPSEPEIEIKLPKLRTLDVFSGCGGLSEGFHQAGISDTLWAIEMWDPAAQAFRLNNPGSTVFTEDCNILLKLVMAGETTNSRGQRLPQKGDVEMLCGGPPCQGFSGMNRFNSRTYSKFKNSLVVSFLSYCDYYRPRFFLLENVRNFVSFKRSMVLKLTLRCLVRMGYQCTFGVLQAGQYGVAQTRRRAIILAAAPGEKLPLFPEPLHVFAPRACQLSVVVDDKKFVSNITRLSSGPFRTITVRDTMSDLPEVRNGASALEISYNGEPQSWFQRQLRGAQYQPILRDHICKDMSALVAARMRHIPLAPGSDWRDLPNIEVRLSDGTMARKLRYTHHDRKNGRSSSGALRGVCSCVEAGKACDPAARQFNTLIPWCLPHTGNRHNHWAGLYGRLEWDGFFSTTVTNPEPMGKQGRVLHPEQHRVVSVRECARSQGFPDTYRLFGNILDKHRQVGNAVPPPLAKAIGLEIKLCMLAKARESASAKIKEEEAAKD

Activity	SMILES
55 µM	C=C(Cl)/C(=C\Br)CCC(Br)C(C)(C)Cl (centres undefined)
21.9 µM	C=C[C@](Cl)(CBr)CC[C@@H](Br)C(C)(C)Cl
1.25 µM	C=C(Cl)[C@](Cl)(CBr)CC[C@@H](Br)C(C)(C)Cl
1.65 µM	C=C(Cl)/C(=C\Br)CCC(Br)=C(C)C
